Key:
[1] = tested on: Aging-accelerated model mice (SAMP1); assay: Aging preventing (retarding) effect in aging-accelerated model mice, aging degree score; format: in vivo; details: SAMP1 female mice, about 150 to 250 mg/kg/day; for aging degree score (increase): feed containing 0.2% test substance, versus control feed, FIG. 1 / FIG. 2
Excerpt: In evaluating such antiaging effects, for example, aging-accelerated model mice, can be used as an in vivo evaluation model. This mouse is a model mouse discovered and bred at Kyoto University, Japan, which develops the state of aging early and markedly.
Aging-accelerated model mice (SAMP1, 3-week-old females) were allowed free access to a feed (CE-2, product of CLEA Japan, Inc.) containing 0.2% reduced coenzyme Q10 (containing about 1% of oxidized coenzyme Q10) obtained in Production Example 1, and the aging degree of each mouse was quantified with time according to the aging degree score mentioned below. The dose of reduced coenzyme Q10 as estimated from the feed consumption and animal weight corresponded to about 150 to 250 mg/kg/day. A control group was given the feed alone (CE-2, product of CLEA Japan, Inc.).
The aging-accelerated model mice used were model mice discovered and bred at Kyoto University which develop the state of aging early and markedly. These mice show the state of aging quite similar to that of humans, and are useful model animals for in vivo testing for antiaging effects. The aging degree scoring system employed was the scoring system established by the Council for SAM Research. Thus, scores of 0 to 4 were given to each animal with respect to each of the following 11 items: 1: decrease in activity (searching behavior), 2: decrease in passivity (pinching escaping behavior), 3: loss of hair luster, 4: roughening of hair, 5: loss of hair, 6: skin ulcer, 7: periophthalmic lesions (blepharitis and periophthalmic erosion), 8: corneal clouding, 9: corneal ulcer, 10: cataract, 11: increased anterior or backward spinal curvature. The conditions found in a group of young mice about 3 months of age were taken as standards and given the score 0 (zero). Thus, a higher score indicates more advanced aging.
The test of Example 1 was performed in the same manner except that oxidized coenzyme Q10 was used in lieu of reduced coenzyme Q10. […]

[2] = in vitro; cited from earlier work
[3] = tested on: rats; details: administered every day for 52 weeks at 1,200 mg/kg/day (Williams et al. 1999); cited from earlier work

| SMILES | aging degree score (increase) [1] | aging preventing effect compared with reduced coenzyme Q10 ([1]; feed, FIG. 2 vs FIG. 1) | antioxidant activity [2] | toxic effect [3] |
| --- | --- | --- | --- | --- |
| COC1=C(OC)C(=O)C(C/C=C(\C)CC/C=C(\C)CC/C=C(\C)CC/C=C(\C)CC/C=C(\C)CC/C=C(\C)CC/C=C(\C)CC/C=C(\C)CC/C=C(\C)CCC=C(C)C)=C(C)C1=O [oxidized coenzyme Q10] | suppressed to a certain extent | weak | does not show antioxidant activity | – |
| COc1c(O)c(C)c(C/C=C(\C)CC/C=C(\C)CC/C=C(\C)CC/C=C(\C)CC/C=C(\C)CC/C=C(\C)CC/C=C(\C)CC/C=C(\C)CC/C=C(\C)CCC=C(C)C)c(O)c1OC [reduced coenzyme Q10] | distinctly prevented from increasing | – | shows antioxidant activity | – |
| COC1=C(OC)C(=O)C(C/C=C(\C)CC/C=C(\C)CC/C=C(\C)CC/C=C(\C)CC/C=C(\C)CC/C=C(\C)CC/C=C(\C)CC/C=C(\C)CC/C=C(\C)CCC=C(C)C)=C(C)C1=O [coenzyme Q10] | – | – | – | no toxic effect |

Source: patent US20050154066A1, “Antiaging composition” (KANEKA CORPORATION, priority 2004, published 2005)
